The values that follow come from patent publication US20210139484A1, “DIHYDROISOQUINOLINE-2(1H)-CARBOXAMIDE AND RELATED COMPOUNDS AND THEIR USE IN TREATING MEDICAL CONDITIONS” (GOSSAMER BIO SERVICES, INC., priority 2018, published 2021).

Bounds are passed on as bounds.

In general, IC50 refers to the point on the concentration scale where inhibition reaches its midpoint. Low values mean higher potency, high ones lower potency.

The first experiment addresses T1, human HPK1 protein (Homo sapiens, UniProt Q92918).
T1 construct: recombinant human HPK1 protein (a.a. 1-346) was expressed in Sf9 insect cells; GST (N); purchased Signalchem M23-11G; host or cells: Sf9 insect cells (baculovirus)
T1 sequence (Q92918 1-346): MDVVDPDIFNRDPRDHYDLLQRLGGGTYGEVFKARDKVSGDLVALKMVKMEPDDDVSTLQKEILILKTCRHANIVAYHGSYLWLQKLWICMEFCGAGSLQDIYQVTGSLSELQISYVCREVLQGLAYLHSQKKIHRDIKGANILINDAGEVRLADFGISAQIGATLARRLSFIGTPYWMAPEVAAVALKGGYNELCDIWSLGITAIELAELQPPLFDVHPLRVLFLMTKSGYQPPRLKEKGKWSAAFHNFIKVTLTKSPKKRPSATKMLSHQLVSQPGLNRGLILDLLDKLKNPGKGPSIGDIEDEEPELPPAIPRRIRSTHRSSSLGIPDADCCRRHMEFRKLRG
Put plainly: Human HPK1 protein TR-FRET assay. The class given is biochemical. The note with it: 1 mM ATP, Table 19. Summed up: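 GST-tagged HPK1 (a.a. 1-346, Sf9-expressed) at 10 nM phosphorylated 100 nM ULight CREBtide with 1 mM ATP in Tris pH 7.5, MgCl2, NP-40, DTT, 1% DMSO, 60 minutes at room temperature. Phospho-Ser133 detected by Eu-antibody TR-FRET (665/615 nm ratio); IC50 from 4-parameter fit against DMSO control.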
A general note: In TR-FRET formats the signal depends on donor and acceptor labels being close together.
`Cc1cc2c(Oc3ccc4c(c3)[C@H](C)N(C(=O)Nc3cnc5c(N6CCN(C)CC6)cccc5c3)CC4)ccnc2[nH]1` [X-7] displayed an IC50 of less than 500 nM.
For the compound `CCN1CCN(Cc2ccc(NC(=O)C3CCc4ccc(Oc5ccnc6[nH]c(C)cc56)cc4N3)cc2C(F)(F)F)CC1` (stereo not shown) [compound 15, N-(4-((4-ethylpiperazin-1-yl)methyl)-3-(trifluoromethyl)phenyl)-7-((2-methyl-1H-pyrrolo[2,3-b]pyridin-4-yl)oxy)-1,2,3,4-tetrahydroquinoline-2-carboxamide], the IC50 is less than 500 nM.
The compound `CCN1CCN(Cc2ccc(NC(=O)N3CCc4ccc(Oc5ccnc6[nH]c(C7(O)COC7)cc56)cc4[C@@H]3C)cc2C(F)(F)F)CC1` [V-23] came in with an IC50 of less than 500 nM.
For `CCN1CCN(Cc2ccc(NC(=O)N3CCc4ncc(Oc5ccnc6[nH]c(C)cc56)cc4C3C)cc2C(F)(F)F)CC1` (stereo not shown) [VIII-1], the IC50 was in the range of 500 to 5000 nM.
The same measure, in the same setting: the same measure for `CCN1CCN(Cc2ccc(NC(=O)N3CCc4c(C)cc(Oc5ccnc6[nH]ccc56)cc4C3C)cc2C(F)(F)F)CC1` (single isomer, unassigned) [IV-4]: less than 500 nM; for `CCN1CCN(Cc2ccc(NC(=O)N3CCc4ccc(Oc5ccnc6[nH]cnc56)cc4C3)cc2C(F)(F)F)CC1` [II-20]: less than 500 nM; for `CCN1CCN(Cc2ccc(NC(=O)N3Cc4cc(Nc5ccnc(NC)c5)cnc4C(C)C3)cc2C(F)(F)F)CC1` (single isomer, unassigned) [IX-2]: 500 to 5000 nM.
`CCN1CCN(Cc2ccc(NC(=O)N3CCc4cc(F)c(Oc5ccnc6[nH]ccc56)cc4C3C)cc2C(F)(F)F)CC1` (stereo not shown) [IV-7] displayed an IC50 of 500 to 5000 nM.
In turn, `CCN1CCN(Cc2ccc(NC(=O)N3CCc4ccc(Oc5cc(Nc6ncc[nH]6)ncn5)cc4C3)cc2C(F)(F)F)CC1` [II-17] registered a 50% inhibitory concentration (IC50) of less than 500 nM.
`CCN1CCN(Cc2ccc(NC(=O)N3CCc4c(C)cc(Oc5ccnc6[nH]ccc56)cc4C3C)cc2C(F)(F)F)CC1` (stereo not shown) [IV-5] came in with an IC50 of 500 to 5000 nM.
For the compound `CCN1CCN(Cc2ccc(NC(=O)N3CCc4cc(F)c(Oc5ncnn6cccc56)cc4C3C)cc2C(F)(F)F)CC1` (stereo not shown) [IV-33], the half-inhibitory concentration (IC50) is less than 500 nM.
Still for that read-out and setting: the same measure for `CCN1CCN(Cc2ccc(NC(=O)N3CCc4ccc(Oc5ccnc6[nH]ccc56)cc4C3C)cc2C(F)(F)F)CC1` (stereo not shown) [IV-1]: 500 to 5000 nM; for `CC1CN(C(=O)Nc2cnc(OC3CCN(C)CC3)c(C(F)(F)F)c2)Cc2cc(Oc3ccnc4[nH]ncc34)cnc21` (stereo not shown) [VII-11]: 500 to 5000 nM.
`CCN1CCN(Cc2ccc(NC(=O)N3CCc4cc(F)c(Oc5ncnn6cccc56)cc4C3C)cc2C(F)(F)F)CC1` (stereo not shown) [IV-34] registered an IC50 of more than 10000 nM.
Turning to `CCN1CCN(Cc2ccc(NC(=O)N3CCc4ncc(Oc5ccnc6[nH]ccc56)cc4C3C)cc2C(F)(F)F)CC1` (stereo not shown) [compound 9, 3-((1H-pyrrolo[2,3-b]pyridin-4-yl)oxy)-N-(4-((4-ethylpiperazin-1-yl)methyl)-3-(trifluoromethyl)phenyl)-5-methyl-7,8-dihydro-1,6-naphthyridine-6(5H)-carboxamide], the IC50 was less than 500 nM.
Same read-out and setting: the result for `CCN1CCN(Cc2ccc(NC(=O)N3CCc4ccc(Nc5ncnn6cccc56)cc4C3)cc2C(F)(F)F)CC1` [compound 11, N-(4-((4-Ethylpiperazin-1-yl)methyl)-3-(trifluoromethyl)phenyl)-7-(pyrrolo[2,1-f][1,2,4]triazin-4-ylamino)-3,4-dihydroisoquinoline-2(1H)-carboxamide] reads 500 to 5000 nM; that for `CCN1CCN(Cc2ccc(NC(=O)C3CCc4ccc(Oc5ccnc6[nH]c(C)cc56)cc4N3C)cc2C(F)(F)F)CC1` (stereo not shown) [compound 16, N-(4-((4-ethylpiperazin-1-yl)methyl)-3-(trifluoromethyl)phenyl)-1-methyl-7-((2-methyl-1H-pyrrolo[2,3-b]pyridin-4-yl)oxy)-1,2,3,4-tetrahydroquinoline-2-carboxamide], less than 500 nM.
In turn, `CCC1c2cc(Oc3ccnc4[nH]ccc34)ccc2CCN1C(=O)Nc1ccc(CN2CCN(CC)CC2)c(C(F)(F)F)c1` (stereo not shown) [IV-24] registered an IC50 of 500 to 5000 nM.
Compound `CCN1CCN(Cc2ccc(NC(=O)N3CCc4ccc(Oc5c(C)cnc6[nH]ccc56)cc4C3)cc2C(F)(F)F)CC1` [III-6] showed an IC50 of 500 to 5000 nM.
Still for that read-out and setting: the same measure for `CCN1CCN(Cc2ccc(NC(=O)N3Cc4cc(Oc5ncnc6[nH]c(C)cc56)cnc4C(C)C3)cc2C(F)(F)F)CC1` (stereo not shown) [VII-18]: less than 500 nM.

The same experiment, now with this note: 1 mM ATP, Table 20.
Compound `CCN1CCN(Cc2ccc(NC(=O)N3Cc4cc(Oc5ccnc(NCCO)c5)cnc4C(C)C3)cc2C(F)(F)F)CC1` (single isomer, unassigned) [XIV-16] had a 50% inhibitory concentration (IC50) of 500 to 5000 nM.
In the case of `CN1CCC(Oc2ncc(NC(=O)N3CCc4ccc(Oc5c(F)cnc6[nH]c(-c7cnn(C)c7)cc56)cc4C3)cc2C(F)(F)F)CC1` [XII-13], the IC50 is less than 500 nM.
`CC[C@H]1CN(C(=O)Nc2ccc(CN3CCNCC3)c(C(F)(F)F)c2)Cc2cc(Oc3ncnn4cc(C(=O)N(C)C)cc34)cnc21` [XIV-146]: the IC50 is less than 500 nM.
Consider `CC[C@H]1CN(C(=O)Nc2ccc(CN3CCN(C)CC3)c(C(F)(F)F)c2)Cc2cc(Oc3ccnc4[nH]c(-c5cc[nH]n5)cc34)cnc21` [XIV-148], for which the IC50 is less than 500 nM.
Same read-out and setting: the result for `C[C@H]1CN(C(=O)Nc2ccc(CN3CCN(C)CC3)c(C(F)F)c2)Cc2cc(Oc3ccnc4[nH]c(C5(O)COC5)cc34)ccc21` [XV-33] reads less than 500 nM; that for `CC[C@@H]1CN(C(=O)Nc2ccc(CN3CCN(CC)CC3)c(C(F)(F)F)c2)Cc2cc(Oc3ccnc4[nH]c(CO)cc34)cnc21` [XIV-28], less than 500 nM; that for `C[C@H]1CN(C(=O)Nc2ccc(CN3CCN(C)CC3)c(C(F)(F)F)c2)Cc2cc(Oc3ccnc4[nH]c(C5CC5)cc34)cnc21` [XIV-81], less than 500 nM.
In the case of `C[C@@H]1Cc2ccc(Oc3ccnc4[nH]c(C5(O)CC5)cc34)cc2CN1C(=O)Nc1ccc(CN2CCN(C)CC2)c(C(F)(F)F)c1` [XVI-2], the IC50 is less than 500 nM.
Consider `CC[C@@H]1CN(C(=O)Nc2cnc(O[C@H]3CCN[C@@H](C)C3)c(C(F)(F)F)c2)Cc2cc(Oc3ccnc4[nH]c(C)cc34)cnc21` [XIV-71], for which the IC50 fell in the range of 500 to 5000 nM.
The same measure, in the same setting: the result for `CC[C@@H]1CN(C(=O)Nc2ccc(CN3CCN(CCO)CC3)c(C(F)F)c2)Cc2cc(Oc3ccnc4[nH]c(CO)cc34)ccc21` [XV-7] reads less than 500 nM; that for `CC[C@@H]1CN(C(=O)Nc2ccc(CN3CCN(CCO)CC3)c(C(F)(F)F)c2)Cc2cc(Oc3ccnc4[nH]c(CO)cc34)ccc21` [XV-6], less than 500 nM.
`CC[C@@H]1CN(C(=O)Nc2ccc(CN3CCN(CC)CC3)c(C(F)(F)F)c2)Cc2cc(Oc3ncnc4[nH]c(C5CC5)cc34)cnc21` [XIV-37]: the half-maximal inhibitory concentration (IC50) is less than 500 nM.
On the same count and under the same terms, the same measure for `CC[C@H]1CN(C(=O)Nc2ccc(CN3CCN(C)CC3)c(C(F)(F)F)c2)Cc2cc(Oc3ccnc4[nH]c(C#N)cc34)cnc21` [compound 20, (8S)-3-[(2-Cyano-1H-pyrrolo[2,3-b]pyridin-4-yl)oxy]-8-ethyl-N-[4-[(4-methylpiperazin-1-yl)methyl]-3-(trifluoromethyl)phenyl]-7,8-dihydro-5H-1,6-naphthyridine-6-carboxamide]: less than 500 nM.
In turn, `CC[C@@H]1CN(C(=O)Nc2ccc(CN3CCN(C)CC3)c(C(F)(F)F)c2)Cc2cc(Oc3ccnc4[nH]c(C5CC5)cc34)cnc21` [XIV-73] yielded an IC50 of less than 500 nM.
The same measure, in the same setting: the same measure for `CC[C@@H]1CN(C(=O)Nc2cnc(CN3CCN(CC)CC3)c(C(F)(F)F)c2)Cc2cc(Oc3ccnc4[nH]ccc34)cnc21` [XIV-9]: less than 500 nM; for `CC[C@H]1CN(C(=O)Nc2ccc(CN3CCN(C)CC3)c(C(F)(F)F)c2)Cc2cc(Oc3ccnc4[nH]c(C5CC5)cc34)cnc21` [XIV-72]: less than 500 nM; for `Cc1cc2c(Oc3cnc4c(c3)CN(C(=O)Nc3ccc(CN5CC6CCC(C5)N6)c(C(F)(F)F)c3)C[C@H]4C)ccnc2[nH]1` [XIV-101]: 500 to 5000 nM.
Still for that read-out and setting: the same measure for `C[C@@H]1Cc2ccc(Oc3ccnc4[nH]c(C(=O)N(C)C)cc34)cc2CN1C(=O)Nc1ccc(CN2CCN(C)CC2)c(C(F)(F)F)c1` [XVI-1]: less than 500 nM; for `CC[C@H]1CN(C(=O)Nc2ccc(CN3CCN(C)CC3)c(C(F)(F)F)c2)Cc2cc(Oc3ccnc4[nH]c(-c5noc(=O)[nH]5)cc34)cnc21` [XIV-132]: less than 500 nM; for `C[C@@H]1Cc2ccc(Oc3c(F)cnc4[nH]c(-c5cnn(C)c5)cc34)cc2CN1C(=O)Nc1cnc(CN2CCN(C)CC2)c(C(F)(F)F)c1` [XVI-5]: less than 500 nM.
Compound `C[C@@H]1Cc2ccc(Oc3c(F)cnc4[nH]c(-c5cnn(C)c5)cc34)cc2CN1C(=O)Nc1ccc(CN2CCN(C)CC2)c(C(F)(F)F)c1` [XVI-4] showed an IC50 of less than 500 nM.
Still for that read-out and setting: the result for `C[C@H]1c2cc(Oc3ccnc4[nH]c(C5(O)COC5)cc34)ccc2CCN1C(=O)Nc1cnc(OC2CCN(C)CC2)c(C(F)(F)F)c1` [XIII-4] reads less than 500 nM; that for `CCN1CCN(Cc2ccc(NC(=O)N3Cc4cc(Oc5ccnc6[nH]ccc56)cnc4C[C@@H]3C)cc2C(F)(F)F)CC1` [XVIII-18], less than 500 nM; that for `CC[C@H]1CN(C(=O)Nc2ccc(CN3CCN(CC)CC3)c(C(F)(F)F)c2)Cc2cc(Oc3ccnc4[nH]c(C5(O)CC5)cc34)cnc21` [XIV-79], less than 500 nM.
`CC[C@H]1CN(C(=O)Nc2ccc(CN3CCN(C)CC3)c(C(F)(F)F)c2)Cc2cc(Oc3ccnc4[nH]c(CS(C)(=O)=O)cc34)cnc21` [XIV-150] showed an IC50 of less than 500 nM.
Regarding `CC[C@@H]1CN(C(=O)Nc2ccc(CN3CCNCC3)c(C(F)(F)F)c2)Cc2cc(Oc3ccnc4[nH]c(CO)cc34)ccc21` [XV-4], the IC50 was less than 500 nM.
